Legend:
[1] = system: Bel-7402; assay: Ratio of cisplatin IC50 to compound IC50 for human Bel7402 cells; assay type: functional
[2] = system: HL-60; assay: Cytotoxicity against human HL60 after 48 hrs by MTT assay; assay type: functional, cell-based; conditions: HL-60, 48 h
[3] = system: Bel-7402; assay: Cytotoxicity against human Bel7402 after 48 hrs by MTT assay; assay type: functional, cell-based; conditions: Bel-7402, 48 h
[4] = system: KB; assay: Cytotoxicity against human KB after 48 hrs by MTT assay; assay type: functional, cell-based
[5] = system: BGC-823; assay: Cytotoxicity against human BGC823 after 48 hrs by MTT assay; assay type: functional, cell-based; conditions: BGC-823, 48 h

SMILES	Ratio IC50 [1]	IC50 [2]	IC50 [3]	IC50 [4]	IC50 [5]
CCCCCCCCOc1cc(-c2c(C)nn(-c3ccc([N+](=O)[O-])cc3)c2C)cc(-c2c(C)nn(-c3ccc([N+](=O)[O-])cc3)c2C)c1	1.5	7.91 µM	5.22 µM	6.31 µM	8.4 µM
Cc1nn(-c2ccc([N+](=O)[O-])cc2)c(C)c1-c1cccc(-c2c(C)nn(-c3ccc([N+](=O)[O-])cc3)c2C)c1		10.6 µM	11.8 µM	10.1 µM	11.9 µM
O=[N+]([O-])c1ccc(-n2cc(-c3ccncc3)cn2)cc1		17.8 µM	23.2 µM	19.2 µM	20.8 µM
Cc1nn(-c2ccc([N+](=O)[O-])cc2)c(C)c1-c1ccccc1-c1c(C)nn(-c2ccc([N+](=O)[O-])cc2)c1C		16.2 µM	19.9 µM	25.6 µM	25.4 µM
O=[N+]([O-])c1ccc(-c2cnn(-c3ccc([N+](=O)[O-])cc3)c2)cc1		8.78 µM	9.48 µM	8.4 µM	11.9 µM
O=[N+]([O-])c1ccc(-n2cc(-c3ccc(C(F)(F)F)cc3)cn2)cc1		17.3 µM	7.15 µM	21.3 µM	13.8 µM
O=[N+]([O-])c1ccc(-n2cc(-c3cc(C(F)(F)F)cc(C(F)(F)F)c3)cn2)cc1		11.4 µM	7.39 µM	12 µM	18.5 µM
